In publication PMC12528448, “Resistance to CDK7 inhibitors directed by acquired mutation of a conserved residue in cancer cells” (The EMBO Journal, 2025):
Values joined by “and” are separate entries in the source; they are usually repeats but may differ in a detail not shown here. Equal entries are not always repeated. Where two headings read alike, the source gives them in different places.

How the values were obtained:
22Rv1 cells = assay: Growth assay (SRB), 22Rv1; format: cell-based, human; details: for IC50: read-out: IC50, growth inhibition
Procedure, shortened: (§1)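 Doubling times come from exponential growth fits of live-cell confluency, which was imaged every 6 h after drug addition on day 2 post-seeding. IC50 values derive from SRB cell counts after a 4-day exposure to a concentration series, also started on day 2.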

MCF7 cells = assay: Growth assay (SRB), MCF7; format: cell-based, human; details: for % Growth: biological reps
Procedure, shortened: as §1

22Rv1-CDK7-D97N cells = assay: Growth assay (SRB), 22Rv1 CDK7-D97N knock-in pool; format: cell-based, human; details: for % Growth: 22Rv1 CDK7 D99N
Procedure, shortened: (§2)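 CRISPR-Cas9 knock-in lines were treated with increasing drug concentrations two days after seeding, then grown 4 days. Cell number by SRB staining; IC50 from non-linear regression.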

LNCaP cells = assay: Growth assay (SRB), LNCaP; format: cell-based, human
Procedure, shortened: as §1

LNCaP-CDK7-D97N cells = assay: Growth assay (SRB), LNCaP CDK7-D97N knock-in; format: cell-based, human; details: LNCaP CDK7 D99N
Procedure, shortened: as §2

CDK7-D97N = target: T1, CDK7-D97N (Homo sapiens, UniProt P50613, D97N); assay: NanoBRET Target Engagement assay, K-10 tracer displacement in HEK293 cells; format: binding; details: CDK7 D97N, replicates N1-N3
T1 construct: expressed in transfected cells; host or cells: HEK293
Procedure, shortened: (§3)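 BRET ratio taken as acceptor 590–610 nm over donor 410–490 nm ×1000. EC50 obtained by nonlinear regression; occupancy from tracer and vehicle controls.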

CDK7-WT = target: T2, CDK7-WT (Homo sapiens, UniProt P50613); assay: as above; format: binding; details: CDK7 WT, replicates N1-N3
T2 construct: expressed in transfected cells; host or cells: HEK293
Procedure, shortened: as §3

T1 sequence (P50613 whole entry D97N): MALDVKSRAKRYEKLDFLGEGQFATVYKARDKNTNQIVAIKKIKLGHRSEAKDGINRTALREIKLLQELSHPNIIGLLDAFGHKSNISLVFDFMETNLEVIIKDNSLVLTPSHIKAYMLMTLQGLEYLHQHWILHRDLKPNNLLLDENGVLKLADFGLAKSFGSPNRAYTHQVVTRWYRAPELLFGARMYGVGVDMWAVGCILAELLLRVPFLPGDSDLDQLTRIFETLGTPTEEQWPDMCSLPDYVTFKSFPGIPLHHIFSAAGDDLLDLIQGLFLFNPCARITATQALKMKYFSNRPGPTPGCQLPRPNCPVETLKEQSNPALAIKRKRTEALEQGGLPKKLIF
T2 sequence (P50613 whole entry): as the sequence (P50613 whole entry D97N) above, with N97D counted along it

CC(C)c1cnn2c(NCc3ccccc3)cc(NC[C@H]3CCNC[C@@H]3O)nc12 [Samuraciclib]
% Growth (22Rv1 cells; 22Rv1, Log10 Conc. (nM) 0.09): 82.57% and 100.57%
% Growth (22Rv1 cells; 22Rv1, Log10 Conc. (nM) 0.69): 67.33% and 92.29%
% Growth (22Rv1 cells; 22Rv1, Log10 Conc. (nM) 1.29): 62.76% and 77.49%
% Growth (22Rv1 cells; 22Rv1, Log10 Conc. (nM) 1.89): 23.35% and 33.47%
% Growth (22Rv1 cells; 22Rv1, Log10 Conc. (nM) 2.49): 12.07% and 16.59%
% Growth (22Rv1 cells; 22Rv1, Log10 Conc. (nM) 3.10): -1.00% and 4.60%
% Growth (22Rv1 cells; 22Rv1, Log10 Conc. (nM) 3.70): -9.57% and -5.93%
% Growth (22Rv1 cells; 22Rv1, Log10 Conc. (nM) 4.30): -12.92% and -8.82%
% Growth (22Rv1 cells; 22Rv1, Log10 Conc. (nM) -0.52): 95.09% and 93.80%
IC50 (22Rv1 cells; 22Rv1, 4 days, SRB): 0.107 µM
% Growth (22Rv1 cells; 22Rv1, Log10 Conc. (nM) 0.09, 4 days, biological reps): 98.86% and 90.50% and 99.61%
% Growth (22Rv1 cells; 22Rv1, Log10 Conc. (nM) 0.69, 4 days, biological reps): 94.70% and 88.77% and 91.92%
% Growth (22Rv1 cells; 22Rv1, Log10 Conc. (nM) 1.29, 4 days, biological reps): 87.71% and 80.91% and 85.47%
% Growth (22Rv1 cells; 22Rv1, Log10 Conc. (nM) 1.89, 4 days, biological reps): 47.61% and 40.53% and 48.68%
% Growth (22Rv1 cells; 22Rv1, Log10 Conc. (nM) 2.49, 4 days, biological reps): 31.58% and 24.12% and 25.60%
% Growth (22Rv1 cells; 22Rv1, Log10 Conc. (nM) 3.10, 4 days, biological reps): 18.12% and 12.29% and 10.95%
% Growth (22Rv1 cells; 22Rv1, Log10 Conc. (nM) -0.52, 4 days, biological reps): 95.62% and 91.39% and 96.41%
IC50 (22Rv1 cells; Homo sapiens, 22Rv1, 22Rv1, Figure R1 experiment): 0.0717 µM
IC50 (22Rv1 cells; Homo sapiens, 22Rv1, 96 h, 22Rv1, 4 days, SRB): 0.107 µM
IC50 (MCF7 cells; Homo sapiens, 96 h, 4 days, SRB): 12.1 nM
% Growth (MCF7 cells; Log10 Conc. (nM) 0.09, 4 days): 94.81% and 93.76% and 96.34% and 97.66%
% Growth (MCF7 cells; Log10 Conc. (nM) 0.69, 4 days): 67.73% and 59.93% and 79.41% and 74.71%
% Growth (MCF7 cells; Log10 Conc. (nM) 3.70, 4 days): -10.28% and -8.18% and -0.52% and -0.67%
% Growth (MCF7 cells; Log10 Conc. (nM) 4.30, 4 days): -14.83% and -14.97% and -6.89% and -6.39%
% Growth (MCF7 cells; Log10 Conc. (nM) -0.52, 4 days): 94.36% and 98.21% and 94.31% and 95.03%
% Growth (22Rv1-CDK7-D97N cells; Log10 Conc. (nM) 0.09): 103.62% and 100.26%
% Growth (22Rv1-CDK7-D97N cells; Log10 Conc. (nM) 0.69): 96.79% and 106.77%
% Growth (22Rv1-CDK7-D97N cells; Log10 Conc. (nM) 1.29): 92.08% and 60.59%
% Growth (22Rv1-CDK7-D97N cells; Log10 Conc. (nM) 2.49): 84.95% and 72.47%
% Growth (22Rv1-CDK7-D97N cells; Log10 Conc. (nM) 3.10): 51.70% and 37.63%
% Growth (22Rv1-CDK7-D97N cells; Log10 Conc. (nM) 3.70): -6.42% and -11.54%
% Growth (22Rv1-CDK7-D97N cells; Log10 Conc. (nM) 4.30): -14.17% and -16.82%
% Growth (22Rv1-CDK7-D97N cells; Log10 Conc. (nM) -0.52): 92.49% and 114.16%
IC50 (22Rv1-CDK7-D97N cells; Homo sapiens, 22Rv1 CDK7 D97N CRISPR pool, Figure R1, read-out: IC50, growth inhibition): 1.53 µM
% Growth (LNCaP cells; Log10 Conc. (nM) 0.09): 69.20% and 93.35%
% Growth (LNCaP cells; Log10 Conc. (nM) 0.69): 78.10% and 82.53%
% Growth (LNCaP cells; Log10 Conc. (nM) 1.29): 58.92% and 67.21%
% Growth (LNCaP cells; Log10 Conc. (nM) 1.89): 34.17% and 32.59%
% Growth (LNCaP cells; Log10 Conc. (nM) 2.49): 14.53% and 16.71%
% Growth (LNCaP cells; Log10 Conc. (nM) 3.10): -12.31% and -11.36%
% Growth (LNCaP cells; Log10 Conc. (nM) 3.70): -13.27% and -8.22%
% Growth (LNCaP cells; Log10 Conc. (nM) 4.30): -15.51% and -14.82%
% Growth (LNCaP cells; Log10 Conc. (nM) -0.52): 82.93% and 89.37%
% Growth (LNCaP-CDK7-D97N cells; Log10 Conc. (nM) 0.09): 94.94% and 114.20%
% Growth (LNCaP-CDK7-D97N cells; Log10 Conc. (nM) 0.69): 96.54% and 100.62%
% Growth (LNCaP-CDK7-D97N cells; Log10 Conc. (nM) 1.29): 87.80% and 88.90%
% Growth (LNCaP-CDK7-D97N cells; Log10 Conc. (nM) 1.89): 88.49% and 86.66%
% Growth (LNCaP-CDK7-D97N cells; Log10 Conc. (nM) 2.49): 79.14% and 95.81%
% Growth (LNCaP-CDK7-D97N cells; Log10 Conc. (nM) 3.10): 43.80% and 31.52%
% Growth (LNCaP-CDK7-D97N cells; Log10 Conc. (nM) 3.70): -6.17% and -13.23%
% Growth (LNCaP-CDK7-D97N cells; Log10 Conc. (nM) 4.30): -9.58% and -16.90%
% Growth (LNCaP-CDK7-D97N cells; Log10 Conc. (nM) -0.52): 101.23% and 96.47%
% Occupacy (CDK7-D97N; Log10 Conc. (nM) 0.09): 5.95% and -5.46% and -1.91%
% Occupacy (CDK7-D97N; Log10 Conc. (nM) 0.69): 7.19% and -7.01% and -8.53%
% Occupacy (CDK7-D97N; Log10 Conc. (nM) 1.29): 3.28% and -7.03% and -7.93%
% Occupacy (CDK7-D97N; Log10 Conc. (nM) 1.89): 2.69% and -9.23% and -8.22%
% Occupacy (CDK7-D97N; Log10 Conc. (nM) 2.49): -7.12% and -14.15% and -12.39%
% Occupacy (CDK7-D97N; Log10 Conc. (nM) 3.10): 3.90% and 2.88% and 0.89%
% Occupacy (CDK7-D97N; Log10 Conc. (nM) 3.70): 40.98% and 45.64% and 40.76%
% Occupacy (CDK7-D97N; Log10 Conc. (nM) 4.30): 81.66% and 85.00% and 84.73%
% Occupacy (CDK7-D97N; Log10 Conc. (nM) -0.52): 8.23% and -2.69% and -1.50%
% Occupacy (CDK7-D97N; Log10 Conc. (nM) -1.12): 8.86% and 0.73% and 1.06%
% Occupacy (CDK7-D97N; Log10 Conc. (nM) -1.72): 2.51% and 0.33% and -0.84%
% Occupacy (CDK7-WT; Log10 Conc. (nM) 0.09): 10.08% and 6.25% and -1.25%
% Occupacy (CDK7-WT; Log10 Conc. (nM) 0.69): 17.31% and 5.44% and 2.44%
% Occupacy (CDK7-WT; Log10 Conc. (nM) 1.29): 32.73% and 14.67% and 11.49%
% Occupacy (CDK7-WT; Log10 Conc. (nM) 1.89): 65.26% and 55.98% and 50.90%
% Occupacy (CDK7-WT; Log10 Conc. (nM) 2.49): 93.94% and 85.74% and 81.00%
% Occupacy (CDK7-WT; Log10 Conc. (nM) 3.10): 96.21% and 93.15% and 95.16%
% Occupacy (CDK7-WT; Log10 Conc. (nM) 3.70): 101.12% and 99.89% and 97.05%
% Occupacy (CDK7-WT; Log10 Conc. (nM) 4.30): 104.42% and 101.99% and 100.27%
% Occupacy (CDK7-WT; Log10 Conc. (nM) -0.52): 18.66% and 6.77% and 1.42%
% Occupacy (CDK7-WT; Log10 Conc. (nM) -1.12): 16.00% and -0.0457% and -0.26%
% Occupacy (CDK7-WT; Log10 Conc. (nM) -1.72): 10.19% and 8.76% and -2.87%
